Assay results reported in patent publication US8293481B2, “Biomarkers for chronic vascular dysfunction” (Mayo Foundation for Medical Education and Research, priority 2006, dated 2012).

Assays:
Test in all cases: Affymetrix microarray gene expression in aorta post-infarction
Assay type in all cases: in vivo, rat
[1] = tested on: CCAAT/enhancer binding protein (C/EBP) gamma (Cebpg); details: 4 weeks post-infarction, higher with surgery
Text: (§1) After intubation, rats were ventilated continuously (room air) using a small animal ventilator (Model 683, Harvard Apparatus, Holliston, Mass.). A left lateral thoracotomy incision was made along the 5th intercostal space and after the pericardium was opened, the heart was exteriorized using a retention suture placed at the apex. The left anterior descending coronary artery (LAD) was ligated twice using 6-0 prolene suture (Ethicon, Cornelia, Ga.). After chest closure with running 3-0 vicryl suture (Ethicon), rats were put in a recovery chamber with a heating pad and warming light. The post-operative survival rate reached 80%. […] Rats were fed a standard diet of Teklad rodent feed (Harlan) ad libitum and kept on a 12:12 h light-dark cycle. Rats were sacrificed at designated time intervals of 2 weeks and 4 weeks after surgery. […] Isolation of total RNA: […] Surrounding peri-adventitial tissues, fat, and endothelium were then carefully cleaned away and removed. The remaining vascular smooth muscle was then frozen with liquid nitrogen, pulverized into fine powder, and resuspended in 600 μl of Buffer RLT with β-ME (10 μl β-ME: 1 ml Buffer RLT, Qiagen, Valencia, Calif.). The lysate was pipetted directly onto a QIAshredder spin column (Qiagen) placed in a 2 ml collection tube and centrifuged for 5 minutes at 14000 rpm, 4° C. The supernatant was transferred to a new microcentrifuge tube and 1 volume of 70% ethanol was added and mixed. The cleared lysate was then transferred to an RNeasy mini-column (Qiagen) placed in a 2 ml collection tube and spun for 15 seconds at ≧10,000 rpm, 4° C. The flow-through was discarded and 700 μl of Buffer RW1 (Qiagen) was added to the RNeasy column. After the column was spun for 15 seconds at ≧10,000 rpm (4° C.), it was transferred into a new 2 ml collection tube, washed, spun twice with 500 μl Buffer RPE (Qiagen), and eluted with 40 μl of RNase-free water using a microcentrifuge (≧10,000 rpm, 4° C.) for 1 minute. Final RNA samples were stored at −20° C. to prevent degradation. Determination of gene expression using Affymetrix microarrays: Gene expression analysis was conducted using a GeneChip Rat Genome 230 2.0 Array (Affymetrix, West Sacramento, Calif.), with sequences selected from the GENBANK® (World Wide Web at ncbi.nlm.nih.gov) database for expressed sequence tags (dbEST), and Reference Sequence (RefSeq) (Benson et al. (2007) Nucleic Acids Res. 35:D21-25; and Boguski et al. (1993) Nat. Genet. 4:332-333). These sequence clusters were created from the UniGene database (Wheeler et al. (2003) Nucleic Acids Res. 31:28-33; Build 99, June 2002, World Wide Web at ncbi.nlm.nih.gov) and then refined by analysis and comparison with the publicly available draft assembly of the rat genome from the Baylor College of Medicine Human Genome Sequencing Center (Gibbs et al. (2004) Nature 428:493-521). […] GENECHIP® Scanner 3000 and GENECHIP® Operating Software (GCOS) v1.1.1 (Affymetrix, West Sacramento, Calif.), enabled for high-resolution scanning, was used for the final microarray analysis. Differentially expressed genes are listed according to their GeneID number in the National Center for Biotechnology Information (NCBI) database. To ensure accurate analysis, a minimum of 3 ng of good quality total RNA at a concentration of ≧500 pg/μl was required. RNA (1 ng) was tested for its quality using an Agilent 2100 bioanalyzer (Agilent Technologies). A RNA Integrity Number (RIN) was assigned to each sample, and RIN ≧6 was considered satisfactory for proceeding with the microarray analysis. Statistics: The Affymetrix array was used to determine gene expression at 2 weeks and 4 weeks. Uninfarcted control aorta was then compared with both captopril and placebo treated aorta. Similarly, uninfarcted control portal vein was compared with both captopril and placebo treated portal vein. […]

[2] = tested on: Sel (suppressor of lin-12) 1 homolog 1h. (Sel1h); details: 2 weeks, infarcted rats with or without captopril
Text: as §1

TAO kinase 1 (Taok1) = details: 2 weeks, infarcted rats with or without captopril
Text: as §1

[3] = tested on: acyl-CoA thioesterase (ACOT8); details: 2 weeks, infarcted rats with or without captopril
Text: as §1

afadin (Af6) = details: 2 weeks, infarcted rats with or without captopril
Text: as §1

[4] = tested on: chemokine (C-X-C motif) ligand 12 (Cxcl12); details: 4 weeks, surgery group without treatment less than baseline control
Text: as §1

[5] = tested on: cytochrome c oxidase subunit Va (Cox5a); details: 4 weeks post-infarction, higher with surgery
Text: as §1

glutaminase 2 (Gls2) = details: 4 weeks, highest in the infarct group without therapy
Text: as §1

[6] = tested on: glycerophosphodiester phosphodiesterase (MIR16); details: 2 weeks, infarcted rats with or without captopril
Text: as §1

[7] = tested on: regulated endocrine-specific protein 18 (Resp18); details: 4 weeks post-infarction, higher with surgery
Text: as §1

[8] = tested on: trafficking protein particle complex 1 (Trappc1); details: 4 weeks post-infarction, higher with surgery
Text: as §1

[9] = tested on: trimethyllysine hydroxylase epsilon (Tmlhe); details: 4 weeks, surgery group without treatment less than baseline control
Text: as §1

C[C@H](CS)C(=O)N1CCC[C@H]1C(=O)O [Captopril, 1-[(2S)-3-mercapto-2-methylpropionyl]-L-proline]
Cebpg expression in the aorta with captopril therapy versus surgery alone [1]: further increase in expression
Sel1h aortic expression level versus control rats without surgery [2]: higher
Taok1 aortic expression level versus control rats without surgery (TAO kinase 1 (Taok1)): higher
ACOT8 aortic expression level versus control rats without surgery [3]: higher
Af6 aortic expression level versus control rats without surgery (afadin (Af6)): higher
Cxcl12 expression in the aorta with captopril [4]: increased expression
Cox5a expression in the aorta with captopril therapy versus surgery alone [5]: further increase in expression
Gls2 expression in the aorta, captopril treated group among the groups (glutaminase 2 (Gls2)): lowest
MIR16 aortic expression level versus control rats without surgery [6]: higher
Resp18 expression in the aorta with captopril therapy versus surgery alone [7]: further increase in expression
Trappc1 expression in the aorta with captopril therapy versus surgery alone [8]: further increase in expression
Tmlhe expression in the aorta with captopril [9]: increased expression
